Several values for one entry are separate records, joined by “and”; a condition that tells them apart may be missing. Equal entries are not always repeated. Inconclusive results and toxic doses are left out. No stated cut-off is given here; in the data, active means T/C of 150% or more; inactive means T/C below 125%.
Tested on: L1210 leukemia ip in BDF1 mice, survival T/C
Assay: NCI In Vivo Anticancer Drug Screen. Data for tumor model L1210 Leukemia (intraperitoneal) in B6D2F1 (BDF1) mice
Conditions: endpoint: mean survival time, higher = longer survival
Summary of the method: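 Ratio derived from survival: compound-dosed mice over vehicle-dosed mice, all bearing a transplantable tumor.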

[1] = dose: 100.0 mg/kg/injection, schedule: Q01DX009 (ip), vehicle: Klucel (hydroxypropylcellulose) (HPC)
[2] = dose: 100.0 mg/kg/injection, schedule: Q04DX003 (ip), vehicle: Klucel (hydroxypropylcellulose) (HPC)
[3] = dose: 200.0 mg/kg/injection, schedule: Q01DX009 (ip), vehicle: Klucel (hydroxypropylcellulose) (HPC)
[4] = dose: 200.0 mg/kg/injection, schedule: Q04DX003 (ip), vehicle: Klucel (hydroxypropylcellulose) (HPC)
[5] = dose: 400.0 mg/kg/injection, schedule: Q01DX009 (ip), vehicle: Klucel (hydroxypropylcellulose) (HPC)
[6] = dose: 400.0 mg/kg/injection, schedule: Q04DX003 (ip), vehicle: Klucel (hydroxypropylcellulose) (HPC)
[7] = dose: 50.0 mg/kg/injection, schedule: Q01DX001 (ip), vehicle: carboxymethylcellulose (CMC)
[8] = dose: 100.0 mg/kg/injection, schedule: Q04DX002 (ip), vehicle: Klucel (hydroxypropylcellulose) (HPC)
[9] = dose: 200.0 mg/kg/injection, schedule: Q04DX002 (ip), vehicle: Klucel (hydroxypropylcellulose) (HPC)
[10] = dose: 400.0 mg/kg/injection, schedule: Q04DX002 (ip), vehicle: Klucel (hydroxypropylcellulose) (HPC)
[11] = dose: 100.0 mg/kg/injection, schedule: Q01DX001 (ip), vehicle: Klucel (hydroxypropylcellulose) (HPC)
[12] = dose: 200.0 mg/kg/injection, schedule: Q01DX001 (ip), vehicle: Klucel (hydroxypropylcellulose) (HPC)
[13] = dose: 400.0 mg/kg/injection, schedule: Q01DX001 (ip), vehicle: Klucel (hydroxypropylcellulose) (HPC)
[14] = dose: 100.0 mg/kg/injection, schedule: Q04DX003 (ip), vehicle: saline sonified
[15] = dose: 100.0 mg/kg/injection, schedule: Q01DX001 (ip), vehicle: carboxymethylcellulose (CMC)
[16] = dose: 200.0 mg/kg/injection, schedule: Q01DX001 (ip), vehicle: carboxymethylcellulose (CMC)
[17] = dose: 100.0 mg/kg/injection, schedule: Q01DX001 (ip), vehicle: saline
[18] = dose: 200.0 mg/kg/injection, schedule: Q01DX001 (ip), vehicle: saline
[19] = dose: 400.0 mg/kg/injection, schedule: Q01DX001 (ip), vehicle: saline
[20] = dose: 200.0 mg/kg/injection, schedule: Q04DX003 (ip), vehicle: saline sonified
[21] = dose: 100.0 mg/kg/injection, schedule: Q04DX003 (ip), vehicle: saline with Tween-80
[22] = dose: 200.0 mg/kg/injection, schedule: Q04DX003 (ip), vehicle: saline with Tween-80
[23] = dose: 400.0 mg/kg/injection, schedule: Q04DX003 (ip), vehicle: saline with Tween-80

Measured: T/C

O=C(Oc1ccccc1Cl)c1ccc(Cl)cc1Cl
inactive: [1] 91 % of control | [2] 93 % of control | [3] 90 % of control | [4] 96 % of control | [5] 91 % of control | [6] 98 % of control

C#CCCCCCC#[C][Hg][C]#CCCCCCC#C.C#CCCCCCC#[C][Hg][C]#CCCCCCC#C
inactive: dose: 75.0 mg/kg/injection, schedule: Q01DX001 (ip), vehicle: saline 90 % of control | dose: 150.0 mg/kg/injection, schedule: Q01DX001 (ip), vehicle: saline 92 % of control | dose: 300.0 mg/kg/injection, schedule: Q01DX001 (ip), vehicle: saline 95 % of control

CC(C)c1ccc2c(c1)CCC1C(CN=C(N)CSS(=O)(=O)O)CCCC21C (centres undefined)
inactive: dose: 75.0 mg/kg/injection, schedule: Q01DX001 (ip), vehicle: saline with Tween-80 95 % of control | dose: 150.0 mg/kg/injection, schedule: Q01DX001 (ip), vehicle: saline with Tween-80 102 % of control

O=C(O)CC1NCc2cc3ccccc3nc21 (centres undefined)
inactive: dose: 10.0 mg/kg/injection, schedule: Q04DX003 (ip), vehicle: alcohol 94 % of control | dose: 20.0 mg/kg/injection, schedule: Q04DX003 (ip), vehicle: alcohol 99 % of control | dose: 40.0 mg/kg/injection, schedule: Q04DX003 (ip), vehicle: alcohol 105 % of control | dose: 80.0 mg/kg/injection, schedule: Q04DX003 (ip), vehicle: alcohol 99 % of control | dose: 160.0 mg/kg/injection, schedule: Q04DX003 (ip), vehicle: alcohol 97 % of control

CN(C)C(=O)Sc1ccc(S(=O)(=O)F)cc1[N+](=O)[O-]
inactive: [1] 110 % of control | [3] 102 % of control

COc1cc2c(c(OC)c1OC)-c1ccc(OC)c(=O)cc1C(=O)CC2
inactive: [7] 122 % of control

O=C(O)c1cocc1C(=O)O
inactive: [8] 91 % of control | [9] 91 % of control

Cc1nccn1-c1ccc(Cl)cc1N=Cc1ccc(N(CCCl)CCCl)cc1
inactive: [8] 98 % of control | [9] 102 % of control | [10] 102 % of control

Nc1c(Cl)ncnc1NC1CC(CO)CC1O (centres undefined)
inactive: [11] 96 % of control | [12] 93 % of control | [13] 96 % of control

O=C(O)C(O)C(O)C(=O)O.O=C(O)C(O)C(O)C(=O)O.[O]=[V].[O]=[V] (centres undefined)
inactive: dose: 6.25 mg/kg/injection, schedule: Q01DX009 (ip), vehicle: saline 101 % of control and 110 % of control | dose: 6.25 mg/kg/injection, schedule: Q04DX003 (ip), vehicle: saline 92 % of control and 106 % of control | dose: 12.5 mg/kg/injection, schedule: Q01DX009 (ip), vehicle: saline 101 % of control and 96 % of control | dose: 12.5 mg/kg/injection, schedule: Q04DX003 (ip), vehicle: saline 92 % of control and 96 % of control | dose: 25.0 mg/kg/injection, schedule: Q01DX009 (ip), vehicle: saline 98 % of control and 94 % of control | dose: 25.0 mg/kg/injection, schedule: Q04DX003 (ip), vehicle: saline 96 % of control and 97 % of control and 109 % of control | dose: 50.0 mg/kg/injection, schedule: Q04DX003 (ip), vehicle: saline 104 % of control | [14] 91 % of control

OC(COc1ccccc1)CN1CCN(c2ccccc2)CC1 (centres undefined)
inactive: [8] 98 % of control | [9] 102 % of control | [10] 95 % of control and 102 % of control

O=[N+]([O-])c1ccc(O)c(C2N(Cc3ccc(N(CCCl)CCCl)cc3)CCCN2Cc2ccc(N(CCCl)CCCl)cc2)c1
inactive: [7] 109 % of control | [11] 93 % of control | [15] 109 % of control | [1] 93 % of control | [2] 103 % of control | [12] 95 % of control | [16] 118 % of control | [3] 98 % of control | [4] 97 % of control | [13] 95 % of control | [5] 94 % of control | [6] 95 % of control

CCOC(=O)c1c(OC(C)=O)cc(C)nc1OC(C)=O
inactive: [17] 100 % of control | [18] 100 % of control | [19] 111 % of control

CN(C)CCCN1CCC2(CCCC(C(F)(F)F)C2)CC1 (centres undefined)
inactive: dose: 50.0 mg/kg/injection, schedule: Q01DX001 (ip), vehicle: saline 104 % of control | [17] 101 % of control | [18] 104 % of control

c1cnc2c3c(ccc2c1)CN(C1CCCCC1)CO3
inactive: [14] 94 % of control | [20] 91 % of control

O=C(Nc1ccc(O)cc1)OCc1ccccc1
inactive: dose: 45.0 mg/kg/injection, schedule: Q04DX003 (ip), vehicle: Klucel (hydroxypropylcellulose) (HPC) 105 % of control | dose: 50.0 mg/kg/injection, schedule: Q01DX009 (ip), vehicle: Klucel (hydroxypropylcellulose) (HPC) 102 % of control | dose: 50.0 mg/kg/injection, schedule: Q04DX003 (ip), vehicle: Klucel (hydroxypropylcellulose) (HPC) 91 % of control | dose: 65.0 mg/kg/injection, schedule: Q04DX003 (ip), vehicle: Klucel (hydroxypropylcellulose) (HPC) 101 % of control | [11] 109 % of control | [1] 104 % of control | [2] 95 % of control | [12] 106 % of control | [3] 96 % of control | [4] 105 % of control and 106 % of control | [13] 97 % of control | [5] 94 % of control | [6] 98 % of control

O=C(OCCCCCCOC(=O)c1cccc([N+](=O)[O-])c1)c1cccc([N+](=O)[O-])c1
inactive: dose: 100.0 mg/kg/injection, schedule: Q01DX001 (ip), vehicle: other 93 % of control | dose: 200.0 mg/kg/injection, schedule: Q01DX001 (ip), vehicle: other 93 % of control | dose: 400.0 mg/kg/injection, schedule: Q01DX001 (ip), vehicle: other 101 % of control

O=C(c1ccc(Cl)cc1)c1nc2ccccc2[nH]1
inactive: [8] 95 % of control | [9] 95 % of control | [10] 103 % of control

Clc1ccc(CC23CCCCC2N3)cc1 (centres undefined)
inactive: [14] 95 % of control | [20] 108 % of control | dose: 400.0 mg/kg/injection, schedule: Q04DX003 (ip), vehicle: saline sonified 105 % of control

COC(=O)/C=C(\C)Nc1ccc(Cc2ccc(NC(C)=O)cc2)cc1
inactive: [17] 95 % of control | [18] 98 % of control

O=C(O)C1CCCN1 (centres undefined)
inactive: [17] 100 % of control | [18] 87 % of control | [19] 97 % of control

NC(=O)OCCCCCCOC(N)=O
inactive: [21] 90 % of control | [22] 90 % of control | [23] 87 % of control

O=C(Nc1ccccc1)Nn1cnc2ccccc2c1=O
inactive: [21] 89 % of control | [22] 90 % of control | [23] 88 % of control

C=CCNC(=O)Nc1cccc(OC(=O)NC(C)(C)C)c1
inactive: [21] 94 % of control | [22] 94 % of control | [23] 94 % of control

Nc1c(Cl)ccc2c(Cl)ccnc12
inactive: [17] 111 % of control | dose: 150.0 mg/kg/injection, schedule: Q04DX003 (ip), vehicle: other 89 % of control | [18] 98 % of control | dose: 300.0 mg/kg/injection, schedule: Q04DX003 (ip), vehicle: other 97 % of control | [19] 104 % of control

Cc1cc2oc(=O)c(Cl)c(NCCO)c2c(C)c1Cl
inactive: dose: 100.0 mg/kg/injection, schedule: Q01DX009 (ip), vehicle: saline with Tween-80 104 % of control | dose: 200.0 mg/kg/injection, schedule: Q01DX009 (ip), vehicle: saline with Tween-80 96 % of control | dose: 400.0 mg/kg/injection, schedule: Q01DX009 (ip), vehicle: saline with Tween-80 95 % of control

O=C1C2CCN(CC2)C1CNC1(c2ccccc2)CCCCC1 (centres undefined)
inactive: dose: 50.0 mg/kg/injection, schedule: Q01DX001 (ip), vehicle: Klucel (hydroxypropylcellulose) (HPC) 98 % of control | [11] 92 % of control | [12] 92 % of control

Cc1ccc(NC2=C(Cl)C(=O)C(Nc3ccc(C)cc3)=C(Cl)C2=O)cc1
inactive: [7] 97 % of control | [15] 95 % of control | [16] 90 % of control | dose: 400.0 mg/kg/injection, schedule: Q01DX001 (ip), vehicle: carboxymethylcellulose (CMC) 92 % of control

Source: PubChem BioAssay AID248 (DTP/NCI, 2004)
